Series [1] concerns the target HDAC1 (Homo sapiens, UniProt Q13547). In words: Fluorescence-based biochemical HDAC enzyme inhibition assay (ZMAL substrate).
Procedure: (§2) First, the inhibitory activity and isoform selectivity of compounds and controls (see Figure ) was evaluated in a fluorescence-based biochemical HDAC inhibition assay against recombinant HDAC1, HDAC2, HDAC3, and HDAC6. […] First, 3-fold serial dilutions of test compounds were prepared in DMSO. […] IC50 values were determined by generating normalized dose–response curves using the three-parameter logistic equation (GraphPad Prism 8.0, San Diego, USA).
Series [2] relates to HDACs in MV-3 cells. Nature of the series: HDAC whole cell inhibition assay. Particulars: for EC50: Homo sapiens, MV-3, light or radiation study, read-out: whole-cell HDAC inhibition EC50, MV-3.
Procedure: (§3) Furthermore, we determined the EC50 values in the nontumorigenic cell line HEK293 and in the hematological cancer cell line MM.1S.
(§4) For this purpose, 3-fold serial dilutions of test compounds (DMSO) were prepared and added at a volume of 0.5 μL to the cells. […] MAL was used in a final concentration of 0.3 mM in the respective cell culture medium with 0.5% IGEPAL CA-630 (Catalog# J61055, Alfa Aesar). […] The obtained data were normalized to vehicle treated cells, considering 100% enzyme activity. IC50 values were determined by generating dose–response curves using the four-parameter logistic equation (GraphPad Prism 8.0, San Diego, USA).
Series [3] deals with human recombinant HDAC3 (Homo sapiens, UniProt O15379). Nature of the series: Fluorescence-based biochemical HDAC enzyme inhibition assay (ZMAL substrate).
Chain of human recombinant HDAC3 (O15379 whole entry): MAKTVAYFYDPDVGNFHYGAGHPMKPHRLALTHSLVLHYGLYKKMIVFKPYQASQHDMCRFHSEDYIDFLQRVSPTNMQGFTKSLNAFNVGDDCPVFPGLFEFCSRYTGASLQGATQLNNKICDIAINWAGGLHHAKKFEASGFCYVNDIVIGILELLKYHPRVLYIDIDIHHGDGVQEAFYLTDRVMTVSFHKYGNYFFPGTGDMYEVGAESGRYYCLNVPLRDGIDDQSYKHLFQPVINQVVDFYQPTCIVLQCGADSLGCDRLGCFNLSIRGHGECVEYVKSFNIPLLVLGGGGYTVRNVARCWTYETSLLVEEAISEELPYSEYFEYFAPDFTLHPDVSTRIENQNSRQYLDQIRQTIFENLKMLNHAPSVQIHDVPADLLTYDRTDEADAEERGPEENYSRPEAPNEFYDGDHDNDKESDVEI
Chain of human recombinant HDAC3 (Q9Y618 395-489 partner limits assumed): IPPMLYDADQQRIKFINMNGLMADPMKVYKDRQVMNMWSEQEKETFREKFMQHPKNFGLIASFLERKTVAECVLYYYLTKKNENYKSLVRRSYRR
Procedure: as §2
Series [4] concerns MDA-MB-231 cells. In words: MTT cell viability (antiproliferative) assay. The format is cell-based. Particulars: Homo sapiens, MDA-MB-231, light or radiation study. As to the method: (§1) To evaluate the cytotoxicity of the selected HDAC inhibitors, compounds were tested for their antiproliferative activity against MV-3 and MDA-MB-231 cells using the MTT assay. […] MTT (3-(4,5-dimethylthiazol-2-yl)-2,5-diphenyltetrazolium bromide; Catalog# A2231; BioChemica, Applichem GmbH, Darmstadt, Germany) was utilized to measure the antiproliferative effect. Depending on the incubation time, 3000 MV-3 cells (72 h), 2000 MV-3 cells (96 h) or 1000 MV-3 cells (120 h) per well were seeded in 96-well plates (Starlab GmbH, Hamburg, Germany) with each well containing 199 μL of volume. […] Next, predilutions of the test compounds were prepared in DMSO. […] Subsequently, cells were treated with 1.0 μL of the dilution series of the test compounds. […] After removing the supernatant, formazan was solubilized in 200.0 μL DMSO. The absorbance was measured at 570 nm with background subtraction at 690 nm using a Multiskan microplate photometer (Thermo Fisher Scientific, Waltham, MA, USA). The obtained data were normalized to PBS, considering 100% viability.

The nature of series [5]: HPLC photolysis experiments (release of ST13 from ST17). The format is physicochemical. The settings on record: 10 min. As to the method: The deprotection of ST17 and its effective conversion (82%) to its parent HDAC inhibitor ST13 upon irradiation (10 min; λ = 365 nm) was confirmed by high-performance liquid chromatography (HPLC) experiments (see Figure S3, Supporting Information). Next, ST17 was tested for its inhibitory activity against HDAC1, HDAC2, HDAC3, and HDAC6 with and without irradiation at 365 nm (see Table ).
For the deprotection experiments, 10 μL of a 1 mM ST17 solution in DMSO were irradiated for 10 min. Subsequently, samples were diluted with acetonitrile to a final concentration of 100 μM and analyzed via HPLC/UV (λquant = 250 nm) using the area under the curve (area [mAU × min]) for quantification. The amount of ST13 released from the photocager ST17 was quantified using a calibration curve of ST13 (see Figure S2).

Series [6] has as its target HDAC2 (Homo sapiens, UniProt Q92769). Nature of the series: Fluorescence-based biochemical HDAC enzyme inhibition assay (ZMAL substrate).
Procedure: as §2
Series [7] addresses T1, human recombinant HDAC6 (Homo sapiens, UniProt Q9UBN7).
T1 sequence (Q9UBN7 1-1215): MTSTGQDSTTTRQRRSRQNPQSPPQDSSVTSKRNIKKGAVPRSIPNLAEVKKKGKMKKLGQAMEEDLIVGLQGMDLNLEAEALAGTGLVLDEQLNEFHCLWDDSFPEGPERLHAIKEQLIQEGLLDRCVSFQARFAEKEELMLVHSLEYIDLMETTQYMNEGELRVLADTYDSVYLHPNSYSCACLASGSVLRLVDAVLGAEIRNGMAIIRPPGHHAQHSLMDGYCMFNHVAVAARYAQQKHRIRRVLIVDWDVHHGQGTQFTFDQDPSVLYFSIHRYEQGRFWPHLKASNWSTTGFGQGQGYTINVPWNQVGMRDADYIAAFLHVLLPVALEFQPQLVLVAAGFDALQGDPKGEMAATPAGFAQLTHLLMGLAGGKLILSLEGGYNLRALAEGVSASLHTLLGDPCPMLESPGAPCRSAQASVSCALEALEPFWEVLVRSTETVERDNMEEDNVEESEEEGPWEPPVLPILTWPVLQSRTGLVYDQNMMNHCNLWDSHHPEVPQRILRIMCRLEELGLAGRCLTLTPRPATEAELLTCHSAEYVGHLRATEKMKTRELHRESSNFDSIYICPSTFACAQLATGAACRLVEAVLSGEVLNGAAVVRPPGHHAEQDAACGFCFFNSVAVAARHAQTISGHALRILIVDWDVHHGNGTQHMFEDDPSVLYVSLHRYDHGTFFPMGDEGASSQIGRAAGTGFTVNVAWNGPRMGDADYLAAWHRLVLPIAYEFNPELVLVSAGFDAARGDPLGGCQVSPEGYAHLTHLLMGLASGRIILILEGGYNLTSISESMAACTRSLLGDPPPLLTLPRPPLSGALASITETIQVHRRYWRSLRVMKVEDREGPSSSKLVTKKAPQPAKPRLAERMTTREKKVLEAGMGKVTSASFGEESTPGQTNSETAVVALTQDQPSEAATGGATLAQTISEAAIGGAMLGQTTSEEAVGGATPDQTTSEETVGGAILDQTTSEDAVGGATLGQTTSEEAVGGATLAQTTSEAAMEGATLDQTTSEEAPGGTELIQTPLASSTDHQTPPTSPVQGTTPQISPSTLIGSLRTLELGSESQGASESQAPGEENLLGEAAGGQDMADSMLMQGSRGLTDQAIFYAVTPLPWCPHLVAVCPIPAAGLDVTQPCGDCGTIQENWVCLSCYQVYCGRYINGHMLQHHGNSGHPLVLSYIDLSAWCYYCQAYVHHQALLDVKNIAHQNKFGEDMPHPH
The series is described as above.
Procedure: as §2

The subject of series [8] is HDACs in MDA-MB-231 cells. Nature of the series: HDAC whole cell inhibition assay. The settings on record: for EC50: Homo sapiens, MDA-MB-231, light or radiation study, read-out: whole-cell HDAC inhibition EC50, MDA-MB-231.
Procedure: as §3, §4
For series [9], the system named is MV-3 cells. Nature of the series: MTT cell viability (antiproliferative) assay. The format is cell-based, human. Particulars: Homo sapiens, read-out: MV-3 EC50 (MTT). The protocol:
as §1

Series [10] has as its system HDAC6. Also noted: method as in earlier work. Particulars: Figure 1; ref 'Data taken from refs' (numbers not given); cited from earlier work.
The mark [11] stands for this setting: HDAC1 IC50, preincubation of enzyme and inhibitor 1 h at RT, no irradiation.
Where [12] appears, read: HDAC2 IC50, preincubation of enzyme and inhibitor 1 h at RT, no irradiation.

Where two headings read alike, the source gives them in different places.

Chain of HDAC1 (Q13547 whole entry): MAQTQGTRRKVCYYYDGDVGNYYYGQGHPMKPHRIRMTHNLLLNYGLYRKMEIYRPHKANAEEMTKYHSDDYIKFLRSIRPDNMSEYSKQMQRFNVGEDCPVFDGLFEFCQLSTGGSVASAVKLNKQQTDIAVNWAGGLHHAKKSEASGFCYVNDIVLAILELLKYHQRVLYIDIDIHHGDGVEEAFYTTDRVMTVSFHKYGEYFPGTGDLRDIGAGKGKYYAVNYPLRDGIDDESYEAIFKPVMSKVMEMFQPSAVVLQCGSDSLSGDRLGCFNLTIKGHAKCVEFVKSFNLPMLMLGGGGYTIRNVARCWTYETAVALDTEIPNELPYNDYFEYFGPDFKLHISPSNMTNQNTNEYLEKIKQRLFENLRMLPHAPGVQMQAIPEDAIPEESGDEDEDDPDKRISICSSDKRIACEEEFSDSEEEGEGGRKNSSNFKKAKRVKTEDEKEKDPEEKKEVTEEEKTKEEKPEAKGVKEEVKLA
Chain of HDAC2 (Q92769 whole entry): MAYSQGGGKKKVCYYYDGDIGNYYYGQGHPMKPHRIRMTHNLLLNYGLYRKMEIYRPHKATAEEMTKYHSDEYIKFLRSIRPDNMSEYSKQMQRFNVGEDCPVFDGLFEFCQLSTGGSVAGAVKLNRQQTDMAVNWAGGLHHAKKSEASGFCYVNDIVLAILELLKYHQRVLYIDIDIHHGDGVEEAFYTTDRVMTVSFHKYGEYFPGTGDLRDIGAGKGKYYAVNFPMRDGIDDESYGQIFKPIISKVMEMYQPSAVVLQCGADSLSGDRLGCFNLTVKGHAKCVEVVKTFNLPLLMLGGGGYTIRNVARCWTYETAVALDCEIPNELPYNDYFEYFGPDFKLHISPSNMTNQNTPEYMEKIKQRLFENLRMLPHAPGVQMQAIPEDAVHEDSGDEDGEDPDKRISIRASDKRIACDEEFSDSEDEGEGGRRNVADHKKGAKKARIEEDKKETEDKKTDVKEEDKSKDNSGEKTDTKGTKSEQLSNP

One may read the IC50 as the concentration that inhibits the measured activity by half. By EC50 is commonly meant the concentration at which the effect is half-maximal. `COc1cc(COc2ccc(-c3ccccc3)cc2NC(=O)c2ccc(NC(C)=O)cc2)c([N+](=O)[O-])cc1OC` [ST17, 4-Acetamido-N-(4-((4,5-dimethoxy-2-nitrobenzyl)-oxy)-[1,1′-biphenyl]-3-yl)-benzamide]: the IC50 in [1] (setting [11]) is 0.84 ± 0.308 µM; in [1] (HDAC1 IC50, with UV irradiation (10 min, 365 nm) of ST17, preincubation 1 h at RT) it was 0.04 ± 0.008 µM; in [3] (HDAC3 IC50, preincubation of enzyme and inhibitor 1 h at RT, no irradiation) it was > 10 µM; in [3] (HDAC3 IC50, with UV irradiation (10 min, 365 nm) of ST17, preincubation 1 h at RT) it was 8.58 ± 0.76 µM; in [6] (setting [12]), 1.71 ± 0.83 µM; in series [6] (HDAC2 IC50, with UV irradiation (10 min, 365 nm) of ST17, preincubation 1 h at RT), 0.072 ± 0.012 µM. For the same compound, the IC50 in [7] was > 10 µM; in series [7] (read-out: HDAC6 IC50, with UV irradiation (10 min, 365 nm) of ST17, preincubation 15 min at RT), > 10 µM. Further, the EC50 was found to be 5.98 ± 1.24 µM in [2] (18 h); 0.392 ± 0.07 µM in series [2]; 11.2 ± 1.7 µM in series [4] (incubation time 120 h, no irradiation); 6.78 ± 0.58 µM in [4] (with UV irradiation (10 min, 365 nm) of ST17, 120 h); 3.55 ± 2 µM in [8] (18 h); 0.783 ± 0.139 µM in series [8]. The EC50 in [9] (MV-3, light or radiation study, incubation time 120 h, no irradiation) was found to be 16.2 ± 4.1 µM; in series [9] (MV-3, light or radiation study, with UV irradiation (10 min, 365 nm) of ST17, 120 h) it was 4.64 ± 0.93 µM. In addition, the “increase of activity by light-induced activation compared to untreated ST17, MV-3” value in series [2] (whole cell HDAC assay) came out at 15 fold. Moreover, the “conversion to parent HDAC inhibitor ST13 upon irradiation (HPLC)” value in [5] (λ = 365 nm, in DMSO, room temperature) was determined as 82%. In series [5] (initial ST17 concentration 100 µM, 365 nm), the “concentration of released ST13 following irradiation (HPLC)” value is recorded as 81.67 µM. The “increase of activity by light-induced activation compared to untreated ST17, MDA-MB-231” value in series [8] (whole cell HDAC assay) was 4.5 fold.
As to `O=C(CCCCCCC(=O)Nc1ccccc1)NO` [vorinostat, reference compound], the EC50 in series [9] (MV-3, 72 h) turned out to be 1.88 ± 0.73 µM.
Turning to `CC(=O)Nc1ccc(C(=O)Nc2ccccc2O)cc1` [ST01, 4-Acetamido-N-(2-hydroxyphenyl)-benzamide], the IC50 in [1] (setting [11]) and in [6] (setting [12]) was > 10 µM in each case.
For `CCCNNC(=O)c1ccc(CN(CC(=O)NCc2ccccc2)C(=O)c2ccc(N(C)C)cc2)cc1` [compound 5], in [10], the IC50 was 10 µM.
